Laboratory results from publication PMC11887451, “Leveraging Immunogenic Cell Death to Enhance the Immune Response against Malignant Pleural Mesothelioma Tumors” (Journal of the American Chemical Society, 2025).

Key:
[1] = physchem
[2] = tested on: murine malignant mesothelioma cell line AB12; assay: MTT cytotoxicity assay, 72 h, AB12; format: cell-based, mouse; conditions: exposure time 72 h
Source text: (§1) Human malignant mesothelioma cancer cell lines JU77 and LO68 were obtained from Cell Bank Australia (Children's Medical Research Institute, Westmead, Australia). Mouse malignant mesothelioma cancer cell line AB12, human nonmalignant mesothelioma cancer cell line Met5A (mesothelial cells), mouse macrophage cell line J774 and human monocytic cell line THP-1 were obtained from American Type Culture Collection (ATCC) (Rockville, MD, USA). Human malignant mesothelioma cell lines VMC23 (epithelial), Meso82 (sarcomatous), Meso92 (biphasic), were kindly provided by Prof. Walter Berger (Medical University of Vienna). All cells except for J774 were cultured in RPMI and J774 cells were cultured in DMEM. Both types of media were supplemented with 10% FBS and 1% penicillin-streptomycin (10,000 U/mL). Cells were grown in tissue culture flasks (75 cm2 and 25 cm2, SPL Life Sciences Co., Ltd., Korea). All cell lines were grown at 37 °C in a humidified atmosphere of 95% air and 5% CO 2 and passaged when they reached 80–90% confluency. All Au stock solutions were prepared in 1% DMSO in the respected medium, ensuring that cell viability was not inhibited.
(§2) The cytotoxicity of compounds was determined using an MTT colorimetric test. The cells were harvested from culture flasks by trypsinization and seeded into Cellstar 96 -well microculture plates (Greiner Bio -One) at the seeding density of 6000 cells per well (6 × 10^4 cells/mL). After
(§3) the cells were allowed to resume exponential growth for 16 h, they were exposed to drugs at
(§4) different concentrations in media for 72 h. The drugs were diluted in a complete medium at the desired concentration added to each well (100 μL) and serially diluted in other wells. After exposure for 72 h, the media was replaced with MTT in media (5 mg/mL, 100 μL/well) and
(§5) incubated for an additional 50 min. Subsequently, the medium was aspirated, and the purple formazan crystals formed in viable cells were dissolved in DMSO (100 μL/well). Optical densities were measured at 570 nm using a BioTek Synergy H1 microplate and MultiskanTM SkyHigh plate readers. The quantity of viable cells was expressed in terms of treated/control (T/C) values in comparison to untreated control cells, and 50% inhibitory concentrations (IC 50) were calculated from concentration-effect curves by interpolation. An evaluation was based on means from at least three independent experiments, each comprising three replicat es per

[3] = tested on: human malignant mesothelioma cell line JU77; assay: MTT cytotoxicity assay, 72 h, JU77; format: cell-based; conditions: exposure time 72 h
Source text: as §1, §2, §3, §4, §5

[4] = tested on: human malignant mesothelioma cell line LO68; assay: MTT cytotoxicity assay, 72 h, LO68; format: cell-based; conditions: exposure time 72 h
Source text: as §1, §2, §3, §4, §5

[5] = tested on: patient-derived VMC23 cell line (epithelioid MPM); assay: MTT cytotoxicity assay, 72 h, VMC23; format: cell-based, human; conditions: exposure time 72 h
Source text: as §1, §2, §3, §4, §5

[6] = tested on: patient-derived Meso84 cell line (sarcomatoid MPM); assay: MTT cytotoxicity assay, 72 h, Meso84; format: cell-based, human; conditions: exposure time 72 h
[7] = tested on: patient-derived Meso92 cell line (biphasic MPM); assay: MTT cytotoxicity assay, 72 h, Meso92; format: cell-based, human; conditions: exposure time 72 h
Source text: Cell lines and culture conditions
(§6) Mouse malignant mesothelioma cancer cell line AB12, human nonmalignant mesothelioma cancer cell line Met5A (mesothelial cells), mouse macrophage cell line J774 and human monocytic cell line THP-1 were obtained from American Type Culture Collection (ATCC) (Rockville, MD, USA). Human malignant mesothelioma cell lines VMC23 (epithelial), Meso82 (sarcomatous), Meso92 (biphasic), were kindly provided by Prof. Walter Berger (Medical University of Vienna). All cells except for J774 were cultured in RPMI and J774 cells were cultured in DMEM. Both types of media were supplemented with 10% FBS and 1% penicillin-streptomycin (10,000 U/mL). Cells were grown in tissue culture flasks (75 cm2 and 25 cm2, SPL Life Sciences Co., Ltd., Korea). All cell lines were grown at 37 °C in a humidified atmosphere of 95% air and 5% CO 2 and passaged when they reached 80–90% confluency. All Au stock solutions were prepared in 1% DMSO in the respected medium, ensuring that cell viability was not inhibited. The Au concentration in the stock solutions was confirmed through inductively coupled plasma optical emission spectrometry. The stock solution of pemetrexed (10 mM) was prepared in Milli -Q water.
Inhibition of c ell viability assay
as §2, §3, §4, §5

[8] = tested on: human nonmalignant mesothelioma cell line Met5A; assay: MTT cytotoxicity assay, 72 h, Met5A; format: cell-based; conditions: exposure time 72 h
Source text: Cell lines and culture conditions
as §6
Inhibition of c ell viability assay
as §2, §3, §4, §5

[9] = tested on: BALB/c mice; conditions: i.p., 12 injections, 5F 2.5 mg/kg
[10] = tested on: AB12 cells phagocytosed by J774 macrophages; assay: Phagocytosis assay, flow cytometry; format: cell-based, mouse; conditions: AB12 treated 100 min at 5 × IC50 (72 h), 16 h with J774 macrophages
Experimental: page 21: incubated for an additional 50 min. Subsequently, the medium was aspirated, and the purple formazan crystals formed in viable cells were dissolved in DMSO (100 μL/well). Optical densities were measured at 570 nm using a BioTek Synergy H1 microplate and MultiskanTM SkyHigh plate readers. The quantity of viable cells was expressed in terms of treated/control (T/C) values in comparison to untreated control cells, and 50% inhibitory concentrations (IC 50) were calculated from concentration-effect curves by interpolation. An evaluation was based on means from at least three independent experiments, each comprising three […] concentration level. For macrophage analyses, the acute monocytic leukemia -derived THP-1 cell line (ATCC) was used as a model. 1 × 104 THP-1 cells were seeded per well in 96-well plates in RPMI-1640 with 10% FCS and treated for 24 h with 75 nM phorbol 12-myristate 13-acetate (PMA, Sigma- Aldrich) to induce M0 macrophage differentiation. After the differentiation period, PMA was replaced by fresh culture medium to recover for 2h. Afterwards increasing concentrations of 1G, 5A, 5B and 5G were added for a 72-h continuous drug exposure assay. In parallel, the […] were allowed to attach for 24 h. Gold compounds were added to the cells as described for the THP-1 model above. After the incubation period of 72 h, cell viability was determined by an MTT-based assay (EU4U, Biomedica) following the instructions of the manufacturer. DMSO had not impact on the cell viability at the concentrations used. Flow cytometry experiments Phagocytosis assay […] with RPMI, centrifuged (300 × g, 5 min) and labelled with CellTracker Red CMTPX Dye (0.72 μM for 5 × 10^5 cells) at 37°C for 30 minutes in 1 ml of serum -free RPMI. Following S21 page 22: centrifugation of the cells (300 × g, 5 min), 5 ml of fresh RPMI was introduced, and the cells were seeded at a density of 5 x 10^5 cells per well into Cellstar 6-well plates (Greiner Bio-One) (1 ml per well). J774 macrophages (70-80% confluence in a T75 flask) were detached by scraping, centrifuged (300 × g, 5 min). The medium was substituted with 1 ml of DMEM containing CellTracker Green CMFDA (1 μM) and the J774 macrophages were stained at 37°C for 30 minutes. Following centrifugation of the J774 macrophages (300 × g, 5 min), 5 ml of fresh DMEM was introduced, and the macrophages were seeded into a 100 cm2 petri dish (SPL Life Sciences, Korea). After 24 h, the media in AB12 cells was replaced with 1 ml of fresh […] for 100 minutes. After removing the drug-containing media, the cells were trypsinized (0.5 ml), neutralized with 1 ml of RPMI, centrifuged (300 × g, 5 min) and counted. From each sample, […] cells into 6-well plates. AB12 cells and J774 macrophages were co-incubated for 16 h at 37°C and 5% CO2, detached by scraping, centrifuged (300 × g, 5 min), and the pellets were resuspended in PBS for immediate analysis using a CytoFLEX Flow Cytometer (Beckman Coulter, USA). The percentage of phagocytosis was determined by calculating the number of double-positive macrophages (Q2) over the total number of macrophages (Q2 + Q3). […] Annexin V/PI assay AB12 cells were seeded into Cellstar 6-well plates (Greiner Bio-One) at a density of 5 × 10^5 cells/well (1 ml per well). […] The medium was removed and cells were washed with PBS (2 × 1 mL). Afterwards the cells were […] S22

[11] = tested on: calreticulin (CRT) in AB12 cells; assay: CRT detection, flow cytometry; format: cell-based, mouse; conditions: AB12, 5 × IC50 (72 h), 120 min
Experimental: page 23: concentrations for 100 min at 37 °C. After the treatment, the supernatant was collected in 2 mL microtubes, centrifuged (300 × g, 5 min) and the media was removed. The adherent cells were then trypsinized with 500 μL of trypsin at 37 °C for 5 min. Next, 1 mL of medium was added to neutralize trypsin and the resulting cell suspension was combined with the supernatant. The wells were washed with 200 μL of PBS, which was also combined with the supernatant. The combined solutions were centrifuged (300 × g, 5 min), and the resulting pellets were washed with PBS (2 × 1 mL) and resuspended in 200 μL of Annexin V binding buffer. […] Cell death was evaluated by flow cytometry using a CytoFLEX Flow Cytometer equipped with a 488 nm laser and a 638 nm laser (Beckman Coulter, Brea, CA, USA). The cells were excited by the 488 nm laser, and fluorescence emissions were detected at 525/40 nm for FITC (Annexin V) and at 610/20 nm for ECD (PI). […] The percentage of necrosis was determined by calculating the sum of cells in Q1 and Q2. […] Next, cells were incubated with CRT antibody conjugated with AlexaFluor S23 page 24: 488 (62304S, Cell Signaling Technology) at 4 °C overnight, washed twice with PBS, reconstituted in 500 µL of PBS and analyzed by flow cytometry using a CytoFLEX Flow Cytometer equipped with a 488 nm laser and a 638 nm laser (Beckman Coulter, Brea, CA, USA). […]

[12] = Aqueous stability by RP-HPLC in 1:1 DMSO:H2O over 72 h; format: physicochemical; conditions: room temperature
Experimental: The aqueous stability of the Au(III)–DTC complexes was assessed by monitoring their RP-HPLC profiles in a 1:1 DMSO:H2O mixture at room temperature over a 3-day period (Supplementary Figures 112–146).
Determination of the purity of cyclometalated Au( III) complexes was performed using analytical HPLC on a Shimadzu Prominence System equipped with a DGU -20A3 Degasser, two LC-20AD Liquid Chromatography Pump, a SPD-20A UV/Vis Detector and a Shim Pack GVP-ODS 2.0 mm 18 column ([…], 120Å, 250 mm × 4.60 mm i.d.). The analysis was conducted at r.t. with a flow rate of 1.0 mL/min and detection at 254 and 280 nm. Mobile phase A was H2O + 0.1% Trifluoroacetic acid (TFA) while mobile phase B is ACN + 0.1% TFA. The gradient program parameters were as follows: mobil e phase B was increased from 30 to 95% over 30 min. 95% mobile phase B was maintained for 10 min, 95 to 30% over 5 min, and finally returned to 30% for 10 min for the next analysis. LogP values of the complexes were calculated based on the HPLC retention times derived from the calibration standard curve. The calibration standard curve was established using 2-butanone, phenylacetonitrile, anisole, ethyl benzoate, benzophenone, diphenyl ether and triphenylamine. To conduct an aqueous stability study, the HPLC profiles of the sample stock solutions were diluted to a 1:1 ratio of DMSO to […]
water. […]

[13] = tested on: AB12 cells in BALB/c mice; assay: In vivo vaccination model; set-up: species or system mouse; conditions: within the first 30 days after vaccination, n = 8
Source text: Initially, AB12 cells underwent pretreatment with varying concentrations of Au(III) complexes, and the induced cell death and release of desired ICD biomarkers were monitored over time. Upon reaching a cell death rate of 65%–75%, BALB/c mice (n = 8) were subcutaneously injected in the left flank with a vaccine containing 3 × 10^5 of live/dying/dead cells, while the vehicle group received injections of PBS. Seven days postvaccine administration, the immunized mice were rechallenged by inoculating the same number of live AB12 cells (without any prior treatment) into the right flanks (Figure 5A). The progression of tumor growth on the right flanks was monitored using a caliper.
AB12 cells were seeded into Cellstar 24-well plates (Greiner Bio-One) at a density of 1.8 × 104
cells/ml (1 ml per well) and allowed to grow exponentially for 16 hours. Subsequently, the
medium was replaced with 1 ml of fresh medium containing compounds of interest at
predetermined concentrations (with a minimum of 4 wells per treatment condition). These
concentrations were selected to induce 65-75% cell death.
Subsequently, the culture
medium was aspirated, and the cells were washed twice with 1 mL of PBS. The cell
concentration was adjusted to 3 × 10^5 cells (including dead/dying/live cells) per 100 μL of PBS,
and the ratio of dead/live cells was assessed using the Invitrogen Countess 3 cell counter. In
the subsequent experiment, BALB/c mice (8 mice per group) were subcutaneously injected
with 0.1 mL of AB12 cells (3 × 10^5 cells/mL, including dead/dying/live cells) or the
corresponding vehicle (PBS) on the left flank. Tumor growth was monitored daily.
After 7 days, the mice were subcutaneously injected with
0.1 mL of AB12 cells (3 × 10^5 cells/mL, live cells) on the right flank. Regular measurements
of body weights and tumor sizes were taken. Mice that developed palpable tumors were
euthanized for further analysis.

[14] = tested on: calreticulin (CRT) in AB12 cells; conditions: AB12, 5 × IC50, 120 min
Experimental: emission was detected at 525/40 nm for FITC (CRT).
Confocal microscopy experiments
AB12 cells were seeded into confocal dishes (Biosharp) at a density of 3 × 10^5 cells/dish (1
mL per dish). The cells were allowed to resume exponential growth for 16 h. Afterwards, the
cells were incubated with a fresh medium containing compounds at their respective 5 × IC50
concentrations for 2 h at 37°C. After the treatment, the dishes were washed with 1 ml of PBS,
fixed in 4% paraformaldehyde in PBS at r. t. for 20 min and washed twice with 1 mL of PBS.
The dishes were then incubated with CRT antibody conjugated with Alexa Fluor 488 (1:200 in
the dishes were incubated with Wheat Germ Agglutinin conjugated with Alexa Fluor 633 dye
(W21404, Invitrogen) at r. t. in darkness for 30 min, washed with 1 mL of PBS, stained with
propidium iodide (PI) for 10 min at r. t. in darkness and washed with 1 mL of PBS. Samples
were stored in 1 mL of PBS. The confocal images were acquired by Laser Confocal Scanning

Row | Structure (SMILES) | chromatographic logP [1] | IC50 [2] | IC50 [3] | IC50 [4] | IC50 [5] | IC50 [6] | IC50 [7] | IC50 [8] | signs of toxicity, daily injections ([9]; 5A and 5H 4 mg/kg) | deaths, daily injections ([9]; 5H 4 mg/kg) | phagocytosis / ICD response (in words) [10] | CRT expression (in words) [11] | hydrolysis over the 72-h period [12] | minor RP-HPLC peak, share of the total area after 24 h ([12]; 24 h) | minor RP-HPLC peak, share of the total area after 72 h ([12]; 72 h) | phagocytosis rate [10] | mice that developed tumors after vaccination [13] | CRT translocation, confocal microscopy [14]
1 | COc1cccc2c1C(=O)c1c(O)c3c(c(O)c1C2=O)C[C@@](O)(C(=O)CO)C[C@@H]3O[C@H]1C[C@H](N)[C@H](O)[C@H](C)O1 [doxorubicin] | 0.68 |  |  |  |  |  |  |  |  |  |  |  |  |  |  |  |  | 
2 | F[P-](F)(F)(F)(F)F.c1cc[c]2c(c1)Nc1cccc[n+]1[Au-]21[S]C(=[N+]2CCCCC2)[S]1 (centres unmarked) [5H] |  | 100 ± 10 nM | 400 ± 90 nM | 440 ± 90 nM | 940 ± 270 nM | 100 ± 20 nM | 820 ± 180 nM | 130 ± 10 nM | led to toxicity in mice | death of two mice |  |  |  |  |  |  |  | 
3 | N.N.[Cl][Pt][Cl] [Cisplatin, cisplatin, reference compound] |  | 4500 ± 800 nM | 4200 ± 500 nM | 20000 ± 6000 nM | 3600 ± 1000 nM | 17000 ± 2000 nM | 4000 ± 900 nM | 2000 ± 500 nM |  |  | failed to initiate any ICD response | no changes in CRT expression |  |  |  |  |  | 
4 | CCCC[N+](CCCC)=C1[S][Au-]2([S]1)[c]1ccccc1C(OC)c1cccc[n+]12.F[P-](F)(F)(F)(F)F (racemic) [4C] |  | 3100 ± 400 nM | 1600 ± 100 nM | 3100 ± 300 nM | 2500 ± 200 nM | 2700 ± 800 nM | 4500 ± 800 nM | 3000 ± 700 nM |  |  |  |  | less than 10% | 2% | 8% | 37% ± 12% | ≈ 50% | translocation of CRT to the plasma membrane
